Assay results from ChEMBL document CHEMBL1201862, “PubChem BioAssay data set” (2004).
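Cultured in 96-well plates, cells were exposed to test compound for 48 hours across five concentrations. GI50 = concentration required for 50% inhibition of growth.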 The source made the active and inactive calls. Rule as the data show it: active = GI50 up to about 1.1 µM and inactive = higher.

Columns and labels:
Assay in all cases: NCI-60 cell line screen, 48 h
EKVX = system: EKVX
Hs-578T = system: Hs-578T
SNB-19 = system: SNB-19
NCI-H226 = system: NCI-H226
IGROV-1 = system: IGROV-1
U-251 = system: U-251
UO-31 = system: UO-31
Malme-3M = system: Malme-3M
MDA-MB-231 = system: MDA-MB-231
HCT-15 = system: HCT-15
SN12C = system: SN12C
T47D = system: T47D
SK-OV-3 = system: SK-OV-3
PC-3 = system: PC-3
HCC 2998 = system: HCC 2998
786-0 = system: 786-0
HL-60 = system: HL-60
TK-10 = system: TK-10
DU-145 = system: DU-145
A498 = system: A498

Measured: GI50

CC1(C)CC(=O)C(CC(C(=O)C(=O)Nc2cc(C(F)(F)F)ccc2Cl)C(=O)c2ccco2)C(=O)C1 (stereo not given)
inactive: EKVX > 100 µM | Hs-578T > 100 µM | SNB-19 > 100 µM | NCI-H226 > 100 µM | IGROV-1 > 100 µM | U-251 > 100 µM | UO-31 > 100 µM | Malme-3M > 100 µM | MDA-MB-231 > 100 µM | SN12C > 100 µM | T47D > 100 µM | SK-OV-3 > 100 µM | PC-3 > 100 µM | HCC 2998 > 100 µM | 786-0 > 100 µM | HL-60 > 100 µM | TK-10 > 100 µM | DU-145 > 100 µM | A498 46.9 µM
> 100 µM: HCT-15

CC(C)(C)OC(=O)NCCCCC1NC(=O)[C@@H]2Cc3c([nH]c4ccccc34)C(c3ccccc3)N2C1=O (stereo not given in full)
31.1 µM: HCT-15
inactive: EKVX 44.9 µM | Hs-578T 12.1 µM | SNB-19 50.1 µM | NCI-H226 63.7 µM | IGROV-1 40.3 µM | U-251 35.1 µM | UO-31 10.7 µM | Malme-3M 31.1 µM | MDA-MB-231 27.4 µM | SN12C 28.8 µM | T47D 18 µM | SK-OV-3 50.4 µM | PC-3 33.8 µM | HCC 2998 12.8 µM | 786-0 25.1 µM | HL-60 21.5 µM | TK-10 35.2 µM | DU-145 49.2 µM | A498 72.6 µM

Oc1nc(-c2cccc(F)c2)nc2ccccc12
inactive: EKVX > 67.3 µM | Hs-578T 15.7 µM | SNB-19 19.9 µM | NCI-H226 > 100 µM | IGROV-1 57.1 µM | U-251 36.5 µM | UO-31 30.8 µM | Malme-3M 45.8 µM | MDA-MB-231 > 42.2 µM | SN12C > 49.9 µM | T47D > 100 µM | SK-OV-3 28.7 µM | PC-3 55.5 µM | HCC 2998 35.1 µM | 786-0 38.6 µM | HL-60 > 100 µM | TK-10 34.6 µM | DU-145 > 100 µM | A498 30.3 µM
> 100 µM: HCT-15

COC(=O)C1=C(OC(=O)c2ccccc2)C(C(=O)OC)[C@@]2(O)[C@@H](C(=O)OC)[C@H](C)C[C@@H]1[C@@H]2C(=O)OC (stereo not given in full)
inactive: EKVX 31.6 µM | Hs-578T 34.5 µM | SNB-19 74.6 µM | NCI-H226 45.5 µM | IGROV-1 33.8 µM | U-251 35.4 µM | UO-31 29.5 µM | Malme-3M 26.9 µM | MDA-MB-231 37.7 µM | SN12C 41.8 µM | T47D 28 µM | SK-OV-3 29.5 µM | PC-3 37.2 µM | HCC 2998 25 µM | 786-0 38.1 µM | HL-60 20.1 µM | TK-10 75.9 µM | DU-145 59.3 µM | A498 26.4 µM
58.1 µM: HCT-15

CCN(CC)C(=S)SNCc1ccc(S(N)(=O)=O)cc1
19.1 µM: HCT-15
inactive: EKVX 20.9 µM | Hs-578T 19.8 µM | SNB-19 16 µM | NCI-H226 > 38.9 µM | IGROV-1 13.1 µM | U-251 11.2 µM | UO-31 13.1 µM | Malme-3M 15.3 µM | MDA-MB-231 18.1 µM | SN12C 15.5 µM | T47D 16.4 µM | SK-OV-3 40.1 µM | PC-3 13.1 µM | HCC 2998 36 µM | 786-0 14.3 µM | HL-60 4.54 µM | TK-10 25 µM | DU-145 15.5 µM | A498 > 57.1 µM

CSc1nc(-c2ccccc2)[nH]c(=O)n1
inactive: EKVX > 100 µM | Hs-578T > 100 µM | SNB-19 > 100 µM | NCI-H226 > 100 µM | IGROV-1 > 100 µM | U-251 > 100 µM | UO-31 > 100 µM | Malme-3M 59 µM | MDA-MB-231 > 100 µM | SN12C > 100 µM | T47D > 100 µM | SK-OV-3 > 100 µM | PC-3 > 100 µM | HCC 2998 > 100 µM | 786-0 > 100 µM | HL-60 54.5 µM | TK-10 > 100 µM | DU-145 > 100 µM | A498 > 100 µM
> 100 µM: HCT-15
